Measured values published in patent publication US20230027361A1, “METTL3 MODULATORS” (priority 2019, published 2023).
Read-outs that look alike come from different tables or passages of the source.

Experiments:
METTL3/METTL14 = METTL3/METTL14 (Homo sapiens, UniProt Q86U44); experiment: METTL3-14 Standard Enzyme Assay (METTL3 biochemical assay)
In short: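 METTL3/METTL14 at 2.5 nM, preincubated 5 min with compound in 20 mM HEPES pH 7.5, 50 mM KCl, 250 μM MgCl2, 1 mM DTT, at ambient temperature. Started with 100 nM 3′-biotinylated RNA and 100 nM ³H-SAM, quenched at 30 min with 15 μM cold SAM. Methylation read by scintillation on streptavidin flashplates.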

METTL1/WDR4 = METTL1/WDR4 (Homo sapiens, UniProt Q9UBP6); experiment: METTL1 Assay (METTL1 biochemical assay)
METTL1/WDR4, sequence (Q9UBP6 whole entry, species assumed): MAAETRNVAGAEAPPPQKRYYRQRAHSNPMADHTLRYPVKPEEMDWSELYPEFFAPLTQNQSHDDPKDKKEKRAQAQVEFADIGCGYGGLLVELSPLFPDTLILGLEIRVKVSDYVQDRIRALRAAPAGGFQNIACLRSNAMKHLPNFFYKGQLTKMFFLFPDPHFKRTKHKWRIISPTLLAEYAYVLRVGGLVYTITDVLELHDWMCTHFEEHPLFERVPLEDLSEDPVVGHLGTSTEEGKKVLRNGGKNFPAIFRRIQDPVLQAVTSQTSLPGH
METTL1/WDR4, sequence (P57081 whole entry partner, species assumed): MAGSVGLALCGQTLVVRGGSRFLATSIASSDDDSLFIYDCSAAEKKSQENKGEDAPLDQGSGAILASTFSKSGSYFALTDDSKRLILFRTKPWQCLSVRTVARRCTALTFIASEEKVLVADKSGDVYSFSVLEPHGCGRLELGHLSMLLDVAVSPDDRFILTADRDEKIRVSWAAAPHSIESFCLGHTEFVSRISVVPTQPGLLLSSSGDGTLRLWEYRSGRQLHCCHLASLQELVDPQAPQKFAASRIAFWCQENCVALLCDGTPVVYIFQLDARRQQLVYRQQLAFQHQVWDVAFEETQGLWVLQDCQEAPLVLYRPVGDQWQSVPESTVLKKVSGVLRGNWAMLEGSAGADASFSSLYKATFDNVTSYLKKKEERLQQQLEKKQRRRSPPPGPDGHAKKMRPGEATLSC
In short: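 Radiometric methyltransfer by METTL1/WDR4 (6.25 nM f.c., 5 min preincubation) at ambient temperature in HEPES pH 7.5, KCl, MgCl2, DTT; started with 25 nM 3′-biotinylated RNA and 60 nM 3H-SAM, run 20 min, quenched with 15 μM cold SAM. Product captured on streptavidin flashplates (2 h, 25° C), counted by scintillation.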

METTL16 = target: T1, METTL16 (Homo sapiens, UniProt Q86W50); experiment: METTL16 Assay (METTL16 biochemical assay); settings: read-out: METTL16 IC50
T1 sequence (Q86W50 1-562): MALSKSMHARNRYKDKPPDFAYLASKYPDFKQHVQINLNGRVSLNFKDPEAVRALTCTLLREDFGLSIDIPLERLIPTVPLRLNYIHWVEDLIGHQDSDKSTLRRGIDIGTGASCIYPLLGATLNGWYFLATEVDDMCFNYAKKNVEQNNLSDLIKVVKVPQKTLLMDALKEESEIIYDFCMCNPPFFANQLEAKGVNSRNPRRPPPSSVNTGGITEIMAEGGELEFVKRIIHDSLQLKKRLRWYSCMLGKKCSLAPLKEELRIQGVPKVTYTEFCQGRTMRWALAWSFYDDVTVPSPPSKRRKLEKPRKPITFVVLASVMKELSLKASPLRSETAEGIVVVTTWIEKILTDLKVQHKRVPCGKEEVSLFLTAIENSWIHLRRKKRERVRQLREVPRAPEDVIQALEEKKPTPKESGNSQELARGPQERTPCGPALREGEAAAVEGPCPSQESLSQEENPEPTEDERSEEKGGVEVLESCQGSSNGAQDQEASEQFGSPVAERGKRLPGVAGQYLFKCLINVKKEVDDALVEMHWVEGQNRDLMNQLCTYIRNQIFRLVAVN
Description: Assays were performed in a 25 μl-volume in 384-well V-bottom polypropylene microplates (Greiner Bio-One, cat. No. 781280) at ambient temperature. Optimized 1× assay buffer was 20 mM HEPES pH 7.5, 50 mM KCl, 1 mM DTT, 0.01% Tween, 0.01% BSG, 0.004 U/μl RNAseOUT (cat. No. 10777019, ThermoFisher Scientific, Waltham, Mass.). For compound screening METTL16 (final concentration, f.c.=100 nM) was added using a Multidrop Combi (ThermoFisher Scientific, Waltham, Mass.) and preincubated for 5 min. Reactions were started by adding 3′ biotinylated RNA ([…]-biotin) (f.c.=50 nM), 3H-SAM (f.c.=200 nM) and non-radiolabeled SAM (f.c.=800 nM) substrates. Reactions proceeded for 20 minutes and were quenched with excess non-radioactive SAM (f.c.=100 μM). The reactions were then transferred to streptavidin-coated flashplates and incubated for 2 hours at 25° C. Following two washing cycles with 0.1% Tween-20, the plates were sealed and read on a TopCount (PerkinElmer, Waltham, Mass.) plate-based scintillation counter. For determination of kinetic parameters, reaction times were optimized so that measurements were taken during the initial velocity phase of the reaction.

PRMT5-MEP50 = PRMT5-MEP50 (Homo sapiens, UniProt O14744); experiment: PRMT5 Assay (PRMT5 biochemical assay)
PRMT5-MEP50, sequence (O14744 whole entry): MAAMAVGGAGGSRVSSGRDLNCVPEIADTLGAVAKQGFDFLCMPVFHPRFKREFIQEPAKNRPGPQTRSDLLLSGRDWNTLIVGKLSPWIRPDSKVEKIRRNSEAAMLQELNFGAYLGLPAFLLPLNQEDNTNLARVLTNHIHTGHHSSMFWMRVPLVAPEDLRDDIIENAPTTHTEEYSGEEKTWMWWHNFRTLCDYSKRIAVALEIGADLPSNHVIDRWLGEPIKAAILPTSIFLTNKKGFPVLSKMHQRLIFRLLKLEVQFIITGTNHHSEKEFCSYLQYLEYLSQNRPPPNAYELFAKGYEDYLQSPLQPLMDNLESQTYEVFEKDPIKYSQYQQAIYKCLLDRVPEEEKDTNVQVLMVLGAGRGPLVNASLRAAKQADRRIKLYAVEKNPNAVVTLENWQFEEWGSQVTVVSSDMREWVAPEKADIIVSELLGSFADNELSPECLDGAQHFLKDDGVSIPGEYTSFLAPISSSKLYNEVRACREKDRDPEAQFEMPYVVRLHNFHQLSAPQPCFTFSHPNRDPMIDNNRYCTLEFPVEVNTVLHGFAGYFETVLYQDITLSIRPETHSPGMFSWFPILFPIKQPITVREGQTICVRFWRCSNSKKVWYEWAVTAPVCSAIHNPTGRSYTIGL
PRMT5-MEP50, sequence (Q9BQA1 whole entry partner): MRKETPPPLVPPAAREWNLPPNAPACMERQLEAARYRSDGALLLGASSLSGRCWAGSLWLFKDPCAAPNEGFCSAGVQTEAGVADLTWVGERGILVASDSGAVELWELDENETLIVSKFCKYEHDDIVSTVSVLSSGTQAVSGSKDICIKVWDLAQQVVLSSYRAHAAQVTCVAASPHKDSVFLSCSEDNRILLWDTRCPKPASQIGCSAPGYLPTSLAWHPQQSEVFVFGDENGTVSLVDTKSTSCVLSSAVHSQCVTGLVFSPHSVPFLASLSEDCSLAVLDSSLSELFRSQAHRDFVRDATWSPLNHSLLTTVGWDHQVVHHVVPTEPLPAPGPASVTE
In short: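 PRMT5-MEP50 (2.5 nM final) preincubated 5 min with compound, then reacted 60 min at ambient temperature with 100 nM biotinylated N-acetyl histone H4 peptide and 250 nM 3H-SAM in 20 mM Tris-HCl pH 8.0, 1 mM DTT, 0.01% Tween. Quenched with 15 μM cold SAM; methylated peptide captured on streptavidin flashplates, scintillation counted.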

[1] = system: m6A in cellular mRNA of MOLM-13 cells; experiment: m6A-mRNA LC-MS/MS Assay (m6A cellular assay); format: cell-based; settings: Homo sapiens, MOLM-13, read-out: m^6A IC50
Description: Cells were harvested by centrifugation followed by mRNA extraction using DIRECT Dynabeads mRNA DIRECT kit (Life Technologies). mRNA was quantified on NanoDrop spectrophotometer (Thermo Fisher Scientific) and digested into single nucleosides using Nucleoside Digestion Mix (New England Biolabs). […] Quantification is performed in comparison with the standard curve, obtained from pure nucleoside standards (Selleck Chemicals) running with the same batch of samples. Percentage m^6A in cellular mRNA is calculated as 100*(m^6A/A).

MOLM-13 cells = experiment: MOLM-13 48 Hour Cell Proliferation Assay; format: cell-based; settings: Homo sapiens
In short: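 MOLM-13 cells in RPMI 1640 with 10% FBS, plated overnight, then exposed 48 h at 37 °C to a 10-point, 4-fold compound dilution series (0.25% DMSO final). Viability read by CellTiter-Glo luminescence, normalized to staurosporine (100% death) and DMSO (0%); IC50 from 4-parameter logistic fit.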

METTL3/METTL14, sequence (Q86U44 whole entry, species assumed): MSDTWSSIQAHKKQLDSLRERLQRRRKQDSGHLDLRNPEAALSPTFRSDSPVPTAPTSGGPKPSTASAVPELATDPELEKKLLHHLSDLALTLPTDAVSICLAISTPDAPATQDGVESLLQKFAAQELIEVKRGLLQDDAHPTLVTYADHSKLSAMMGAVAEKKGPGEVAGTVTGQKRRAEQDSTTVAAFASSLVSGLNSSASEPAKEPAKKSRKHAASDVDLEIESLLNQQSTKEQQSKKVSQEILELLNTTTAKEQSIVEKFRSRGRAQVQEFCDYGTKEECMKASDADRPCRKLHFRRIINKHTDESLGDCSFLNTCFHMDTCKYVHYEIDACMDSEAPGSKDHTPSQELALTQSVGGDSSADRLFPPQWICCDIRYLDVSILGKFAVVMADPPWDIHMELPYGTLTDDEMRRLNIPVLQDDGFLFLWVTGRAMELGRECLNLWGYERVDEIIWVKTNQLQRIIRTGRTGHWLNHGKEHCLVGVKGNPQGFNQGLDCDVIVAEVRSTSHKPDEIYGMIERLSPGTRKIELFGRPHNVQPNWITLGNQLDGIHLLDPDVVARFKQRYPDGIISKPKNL
METTL3/METTL14, sequence (Q9HCE5 whole entry partner, species assumed): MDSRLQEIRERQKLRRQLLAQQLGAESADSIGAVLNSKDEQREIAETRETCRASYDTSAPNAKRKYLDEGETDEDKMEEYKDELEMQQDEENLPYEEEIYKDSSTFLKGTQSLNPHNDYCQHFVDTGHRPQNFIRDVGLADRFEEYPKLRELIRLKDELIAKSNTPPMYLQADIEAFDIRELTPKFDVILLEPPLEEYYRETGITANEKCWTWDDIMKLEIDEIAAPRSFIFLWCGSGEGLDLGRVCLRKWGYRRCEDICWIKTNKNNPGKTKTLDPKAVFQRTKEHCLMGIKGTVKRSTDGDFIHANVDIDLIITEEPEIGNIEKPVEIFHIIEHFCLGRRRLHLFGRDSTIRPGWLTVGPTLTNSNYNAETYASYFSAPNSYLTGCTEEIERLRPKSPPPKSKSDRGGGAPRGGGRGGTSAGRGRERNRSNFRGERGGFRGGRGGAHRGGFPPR

| SMILES | IC50 (METTL3/METTL14; METTL3 biochemical assay; read-out: METTL3 IC50) [nM] | IC50 (METTL1/WDR4) [nM] | IC50 (METTL16) [nM] | IC50 (PRMT5-MEP50; PRMT5 biochemical assay; read-out: PRMT5 IC50) [nM] | IC50 [1] [nM] | IC50 (METTL3/METTL14; read-out: METTL3 IC50; METTL3 biochemical assay) [nM] | IC50 (PRMT5-MEP50; read-out: PRMT5 IC50; PRMT5 biochemical assay) [nM] | IC50 (MOLM-13 cells) [nM] |
| --- | --- | --- | --- | --- | --- | --- | --- | --- |
| CNc1ccc2ccc(CC[C@H]3C[C@@H](n4cc(CO)c5c(N)ncnc54)[C@H](O)[C@@H]3O)cc2n1 [I-52, (1R,2S,3R,5S)-3-[4-amino-5-(hydroxymethyl)-7H-pyrrolo[2,3-d]pyrimidin-7-yl]-5-{2-[2-(methylamino)quinolin-7-yl]ethyl}cyclopentane-1,2-diol] | < 10 | > 1000 | > 1000 | < 10 | 1000 to 10000 | – | – | – |
| CNc1ccc2ccc(OC[C@H]3O[C@@H](n4cc(-c5cn(C)cn5)c5c(N)ncnc54)[C@@H](F)[C@@H]3O)cc2n1 [I-28] | – | – | > 1000 | – | 1000 to 10000 | < 10 | 100 to 1000 | 1000 to 10000 |
